Five molecules from patent US20250034196A1, “ESTER DERIVATIVES OF N4-HYDROXYCYTIDINE AND USE THEREOF” (priority 2021, published 2025) can be followed below.

A word on the half-life: it is the time in which the quantity being followed falls by half. The AUC(0-inf) is total exposure, with the tail of the curve extrapolated. Low values mean low exposure, high ones high exposure. A word on the AUC(0-t): it is the area under the concentration-time curve up to a stated or last time point. In general, Cmax refers to the maximum level reached in the sampled fluid or tissue. What is called Tmax is the time from dosing to the highest level.

Data set [1] concerns SARS-CoV-2, Hongkong strain. It counts as in vivo, K18 hACE2 transgenic mice.
Data set [2] can be described thus: in vitro. The format is in vitro ADME. The settings on record: plasma. The method, then: (§1) Preparation of Solutions: Stock solution (10 mM) of each of test compounds was prepared in DMSO. The stock solution for each compound was then diluted into 100 μM with acetonitrile.
Plasma Incubations: Plasma incubations were conducted in duplicate in 96-well plate at 37° C. Plasma was prewarmed in a total volume of 198 μL for 5 min at 37° C., then added 2 μL of 100 μM test compound into an incubation well containing plasma, pipette-mixed to achieve a homogenous suspension and immediately transferred 20 μL incubate as a 0 min sample to wells in a “Quenching” plate followed by adding 200 μL of acetonitrile with metolazone as internal standard (IS) and pipette-mixing. At 2, 5, 60, and 90 min, pipette-mixed the incubate and serially transfer samples of 20 μL incubate per time point to wells in a separate “Quenching” plate followed by adding 200 μL of acetonitrile with metolazone as IS and pipette-mixing.
(§2) Sample Analysis: The 96-well plate was centrifuged at 6000 g for 10 min. The supernatant was injected onto the LC-MS/MS system for analysis.

Data set [3] in a line: in vitro. It counts as in vitro ADME. The note with it: microsomes; for half-life at 1 µM: pH 7.4. The procedure: as §1
(§3) Microsome Incubations: Incubation mixtures were prepared in a total volume of 200 μL with final component concentrations as follows: 0.1M PBS (pH 7.4), NADPH (2 mM) and liver microsomes (0.2 mg/mL) as well as test compound (1 μM) or Molnupiravir (1 μM) as a positive control, wherein the NADPH was added after a 5-min preincubation of all other components at 37° C. Pipette-mixed to achieve a homogenous suspension and immediately transferred 20 μL incubate as a 0 min sample to wells in a “Quenching” plate followed by adding 200 μL of acetonitrile with metolazone as IS and pipette-mixing. At 2, 5, 10, and 45 min, pipette-mixed the incubate and serially transfer samples of 20 μL incubate per time point to wells in a separate “Quenching” plate followed by adding 200 μL of acetonitrile with metolazone as IS and pipette-mixing.
as §2

The nature of data set [4]: Microsome stability. It counts as in vitro ADME, Monkey. The settings on record: monkey, microsomes, pH 7.4. The method, then:
as §1, §3, §2

Data set [5] can be described thus: in vivo. Also noted: species or system Beagle Dogs. The settings on record: dog, po, 10 mg/kg; for AUC(0-inf): AUCINF of EX-1/NHC/CH2018; for AUC(0-t): AUClast of EX-1/NHC/CH2018; for Cmax: Cmax of EX-1/NHC/CH2018; for half-life: T1/2 of EX-1/NHC/CH2018; for Tmax: Tmax of EX-1/NHC/CH2018. The procedure: Example 174: Pharmacokinetic Study of EX-2 (CH2101), Molnupiravir (CH2017) and its Metabolite NHC (CH2018) Following a Single PO Administration of EX-2 (CH2101) or Molnupiravir (CH2017) in Male and Female Beagle Dogs
Both test compounds were prepared in 1% methyl cellulose (400 cps, SIGMA, SLCF9694) solution in purified water.
A total of 6 male+6 female Beagle Dogs, approximately 7-13 kg of bodyweight, were originally purchased from Marshall Biotechnology Co., Ltd. The animals were fasted overnight prior to dosing and food was re-provided after 4 hours post dosing.
The animals were restrained manually, and approximately 1 mL of blood at each time point was collected into pre-cooled EDTA-K2 tubes via cephalic or saphenous veins. Blood samples were centrifuged at 4° C. (4000 rpm. 5 min) to obtain plasma within 30 min after sample collection. All samples were stored at approximately −80° C. until analysis. The backup samples will be discarded after the in vivo experiment has been completed for two months unless requested.

The mark [6] stands for this setting: Remdesivir 25 mpk SC twice daily.

`CCC(CC)COC(=O)[C@H](C)N[P@](=O)(OC[C@H]1O[C@@](C#N)(c2ccc3c(N)ncnn23)[C@H](O)[C@@H]1O)Oc1ccccc1` [Remdesivir] yielded a Survival proportions in data set [1] (14-day study, twice daily days 0-6, CH2101 450 mg/kg PO, Remdesivir 25 mg/kg SC) of 0%. For the same molecule, in data set [1] (setting [6]), the “Body weight loss observed from day” value was determined as 2 days, the “Gross clinical symptoms appear from day” value came to 6 days and the “Max clinical symptom score (mean value)” value is 2. In data set [1] (compared with vehicle group (group 1), Remdesivir 25 mg/kg SC), this molecule had a Prolonged survival time of 20%. Also, in data set [1] (day 5), the “Virus titer in lung, comparison with Remdesivir group (mean difference)” value amounted to 2.47. Besides, the “Virus titer in lung” value in data set [1] (day 5, plaque assay, mean, twice daily days 0-4, CH2101 450 mpk PO, Remdesivir 25 mpk SC) was 5.11 Log 10 plaque#/g lung. Also, in data set [1] (day 5, CH2101 450 mpk PO, Remdesivir 25 mpk SC), the “Virus titer in lung, mean difference vs. group 1 (Vehicle group)” value is on record as 0.83 Log. For the same molecule, in data set [1] (day 6, normalized to day 0, Remdesivir 25 mpk SC twice daily), the Body weight change is listed as −13.6%. Besides, in data set [1] (twice daily days 0-6, CH2101 450 mg/kg PO, Remdesivir 25 mg/kg SC), the Median survival time stood at 6 days.

With `O=C(ONc1ccn([C@@H]2O[C@H](CO)[C@@H](O)[C@H]2O)c(=O)n1)C1CC1` [EX-15], the half-life at 1 µM was found to be 109 min in data set [2] (dog); 5.8 min in data set [2] (human); 16.5 min in data set [2] (monkey); 5.2 min in data set [2] (mouse); 88.9 min in data set [2] (rat); 132 min in data set [3] (dog). In addition, the results for the half-life at 1 µM in data set [3] (human), in data set [3] (mouse) and in data set [4] were 67.3 min, 15.4 min and 25 min, respectively. Further, in data set [3] (rat), the T1/2 entry is “∞”.

In the case of `O=c1nc(NO)ccn1[C@@H]1O[C@H](CO)[C@@H](O)[C@H]1O` [EX-1/NHC/CH2018, NHC], in data set [5] (both sexes, beagle), the AUC(0-inf) is 9680 ng·h/mL, the exposure AUC(0-t) turned out to be 9580 ng·h/mL, the peak concentration (Cmax) amounted to 4780 ng/mL and the half-life was 227 min. Also, in data set [5] (both sexes, beagle), the time of peak concentration (Tmax) worked out at 0.875 h. For the same molecule, in data set [5] (both, Beagle), the “AUCmale/female of EX-1/NHC/CH2018” value is on record as 158%. In addition, in data set [5] (female, beagle), the “AUCINF of EX-1/NHC/CH2018” value was determined as 7683 ng·h/mL, the “AUClast of EX-1/NHC/CH2018” value was 7632 ng·h/mL, the “Cmax of EX-1/NHC/CH2018” value was found to be 3940 ng/mL and the “T1/2 of EX-1/NHC/CH2018” value is 1.06 h. In data set [5] (female, beagle), this molecule gave an AUC(0-inf) of 7310 ng·h/mL, an exposure AUC(0-t) of 7220 ng·h/mL, a maximum concentration (Cmax) of 4550 ng/mL and a half-life of 76.8 min. Besides, the Tmax in data set [5] (female, beagle) was 1 h. In data set [5] (male, beagle), the “AUCINF of EX-1/NHC/CH2018” value came to 11046 ng·h/mL, the “AUClast of EX-1/NHC/CH2018” value was found to be 10957 ng·h/mL, the “Cmax of EX-1/NHC/CH2018” value is recorded as 5240 ng/mL and the “T1/2 of EX-1/NHC/CH2018” value is 5.72 h. Moreover, in data set [5] (male, beagle), the “Tmax of EX-1/NHC/CH2018” value is 30 min, the AUC(0-inf) came to 12700 ng·h/mL, the AUC(0-t) was 12500 ng·h/mL and the Cmax came out at 5380 ng/mL. In data set [5] (male, beagle), the half-life was 425 min and the Tmax was determined as 1 h.

Regarding `COC(C)(C)C(=O)ONc1ccn([C@@H]2O[C@H](CO)[C@@H](O)[C@H]2O)c(=O)n1` [EX-53], the half-life at 1 µM was 156 min in data set [2] (dog); 4.8 min in data set [2] (human); 9.8 min in data set [2] (monkey); 3.1 min in data set [2] (mouse); 94.3 min in data set [2] (rat); 87.5 min in data set [3] (dog). For the same molecule, the half-life at 1 µM stood at 86.6 min in data set [3] (human), 17.1 min in data set [3] (mouse), 70.5 min in data set [3] (rat) and 7.3 min in data set [4].

In the case of `CC(C)C(=O)ONc1ccn([C@@H]2O[C@H](CO)[C@@H](O)[C@H]2O)c(=O)n1` [EX-3], the half-life at 1 µM in data set [2] (dog) worked out at 21.2 min; in data set [2] (human), 2.8 min; in data set [2] (monkey), 3.2 min; in data set [2] (mouse) it was 0.6 min; in data set [2] (rat), 25.9 min; in data set [3] (dog), 33.8 min. The half-life at 1 µM in data set [3] (human) worked out at 13.5 min; in data set [3] (mouse), 6.8 min; in data set [3] (rat), 46.6 min; in data set [4], 4.4 min.
